{"source": "patent US8962637B2", "about": "“Bicyclic compounds and their uses as dual c-SRC/JAK inhibitors” (Debiopharm S.A., priority 2010, dated 2015)", "tested_on": "A431 tumor cells", "assay": "A431 xenograft model", "type": "in vivo, athymic nude mice", "settings": "A431 Xenograft model, 100 MPK", "protocol": "SC injection of 5×10^6 A431 tumor cells with Matrigel® on the left flank of 24 female athymic nude mice. Randomization of mice 14 days after tumor cell injection into 3 groups of 8 mice each with a mean tumor volume of 90±1 mm3.\nFormulation: 20% HPC, 2% ethanol solution in PBS for the compound No. 45\n• Normal saline for Gefitinib® Dosing route: Oral for the compound No. 45 and Gefitinib® Dose Volume: 10 mL/Kg body weight Dosing schedule: Once daily for 14 consecutive days (Q1Dx14) PK-PD experiment in A431 model: Tumors were allowed to grow to 250 mm^3 size. Compounds were dosed once and PBMCs and tumors were collected at Tmax for pStat3 estimation. Plasma was also collected to estimate drug concentration estimation. Efficacy experiment in A431 model: Dosage: • Group1. Vehicle control • Group2. Compound No. 45—150 MPK • Group3. […] Plasma collected for drug concentration estimation and whole blood was collected to isolate PBMCs to determine pStat3 inhibition by flow cytometry as PD readout. Tumors were snap frozen in liquid nitrogen and stored at −80° C. to estimate pStat3 by flow cytometry as PD readout Determination of Plasma Drug Concentration: […]", "data": [{"smiles": "COc1cc2ncnc(Nc3ccc(F)c(Cl)c3)c2cc1OCCCN1CCOCC1", "note": "[Gefitinib, reference compound]", "values": [{"measurement": "% TGI", "result": 94.25, "unit": "%"}]}]}
